Measured values published in patent publication US4568690A, “1-Methyl-5-p-methylbenzoylpyrrole-2-acetamidoacetanilides with antiinflammatory, analgesic, antipyretic and anti-platelet aggregant activity” (priority 1983, dated 1986).

Tests used:
gastric mucosa = assay: gastric tolerance (ulcerogenic activity); details: orally, four consecutive days; for Mean number severity: severity scale 0-5
Procedure: This was studied by testing ulcerogenic activity in male Wistar rats weighing an average of 180 g, using groups of 10 animals each. Three doses of each substance were used, and one group of animals was treated with vehicle only, in a volume of 10 ml/g body weight. Each dose was administered orally for four consecutive days, and the rats were killed on the fifth day and autopsied. The ulcerogenic effect was evaluated on the following scale:
(1) each hemorrhage point >1 mm was evaluated as 1 lesion
(2) the hemorrhage points <1 were counted as follows:
(b) from 1 to 19 2 lesions
(c) from 1 to 29 3 lesions
(2) gastric mucosa irritation
(3) hemorrhage points <1 mm
(4) hemorrhage points from 1 to 3 mm
(5) hemorrhage points >3 mm
This scale was used to calculate the following index of gastric damage: [formula]

[1] = tested on: hyperthermia induced by dry purified beer yeast; assay: antipyretic activity, beer yeast-induced hyperthermia; type: in vivo, Wistar strain male albino rats
Procedure: (§1) Preparations of the compound were administered orally and/or parenterally in a suspension in 0.59% carboxymethylcellulose in pH neutral physiological saline.
This effect was evaluated by inducing hyperthermia in Wistar strain male albino rats with an average weight of 250±10 g, injecting them intraperitoneally with a 10% suspension of dry purified beer yeast (Carlo Erba) in a volume of 10 ml/Kg of body weight, according to the method of S. Wong et al. (J. Pharmac. Exp. Ther., 185 (1), 127 (1973)).

in vivo = details: rat, ip
carragenin-induced edema = carragenin-induced edema test (antinflammatory activity); type: in vivo, rats
Procedure: as §1
This effect was evaluated with an experimental model reproducing actue inflammation in rats: the carragenin-induced edema test was used, according to the method of C. A. Winter (G. Pharmac. Exp. Ther., 141, 369 (1963)). Table III reports the compounds tested, their concentrations, administration routes and relative percent edema inhibition.

[2] = tested on: platelet aggregation (ADP-induced); assay: in vitro anti-platelet aggregant activity (Born's method, ADP); type: cell-based, rat; details: Rattus norvegicus, Platelet, ADP 7.08 μmol/l, read-out: Inhibition % (platelet aggregation)
Procedure: This activity was studied in vitro following Born's method (G. W. R. Born, Nature, 194, 937 (1962)) and inducing platelet aggregation with ADP. […] For the aggregation test, 0.2 ml of platelet rich plasma was mixed with a NaCl solution (0.9%) to which the test substance was added up to a final volume of 0.6 ml. Incubation was fixed at 3 minutes at 27° C. After aggregation was induced with ADP, the course of the aggregation was monitored continuously with an Elvi 840 Aggregometer (Elvi Logos--Milan). The antiaggregant effects were determined by the difference in the light transmission of the sample with respect to that of the ADP control. The test compound was compared with aspirin, which has known antiplatelet aggregant activity (H. J. Weiss et al., J. Clin. Inv., 47, 2169 (1968); Platelet Aggregation and Drugs, edited by L. Caprino and E. C. Rossi, page 235, Academic Press (London), 1974).
Table VI reports the inhibition of platelet aggregation with various doses of the compounds tested at a constant ADP concentration.

[3] = tested on: p-phenylquinone-induced writhing; assay: p-phenylquinone-induced writhing test (analgesic activity); type: in vivo; details: an hour after administration
Procedure: as §1
The determination was made an hour after administration of the product. The inhibitory effect on abdominal contractions induced by phenyl-p-quinone was calculated as follows: [formula]
Table IV reports the doses, the administration routes and their effectiveness expressed as % protection.

For `Cc1ccc(C(=O)c2ccc(CC(=O)NCC(=O)Nc3cccc(C)c3C)n2C)cc1` [Compound 1f], the Mean number lesions (gastric mucosa; 50 mg/kg) was 1, the Mean number severity (gastric mucosa; 50 mg/kg) was 1 and the Mean number lesions (gastric mucosa; 100 mg/kg) was 2. For the same molecule, the Mean number severity (gastric mucosa; 100 mg/kg) was 3, the Mean number lesions (gastric mucosa; 200 mg/kg) was 3 and the Mean number severity (gastric mucosa; 200 mg/kg) was 3. The Temperature decrease % ([1]; i.p., 50 mg/kg, 1 h) was 12.1%, the Temperature decrease % ([1]; i.p., 50 mg/kg, 2 h) was 25.0% and the Temperature decrease % ([1]; i.p., 50 mg/kg, 3 h) was 29.8%. The Temperature decrease % ([1]; i.p., 75 mg/kg, 1 h) was 16.3%, the Temperature decrease % ([1]; i.p., 75 mg/kg, 2 h) was 30.1% and the Temperature decrease % ([1]; i.p., 75 mg/kg, 3 h) was 35.1%. It also gave a Temperature decrease % ([1]; i.p., 100 mg/kg, 1 h) of 38.7%, a Temperature decrease % ([1]; i.p., 100 mg/kg, 2 h) of 43.0% and a Temperature decrease % ([1]; i.p., 100 mg/kg, 3 h) of 40.0%. It also gave a Temperature decrease % ([1]; os, 50 mg/kg, 1 h) of 15.1%, a Temperature decrease % ([1]; os, 50 mg/kg, 6 h) of 20.0% and a Temperature decrease % ([1]; os, 50 mg/kg, 24 h) of 28.7%. For the same molecule, the Temperature decrease % ([1]; os, 75 mg/kg, 1 h) was 18.2%, the Temperature decrease % ([1]; os, 75 mg/kg, 6 h) was 29.5% and the Temperature decrease % ([1]; os, 75 mg/kg, 24 h) was 28.7%. For the same molecule, the Temperature decrease % ([1]; os, 100 mg/kg, 1 h) was 22.1%, the Temperature decrease % ([1]; os, 100 mg/kg, 6 h) was 32.0% and the Temperature decrease % ([1]; os, 100 mg/kg, 24 h) was 38.1%. The LD50 (in vivo) was 1100 mg/kg, the Oedema inhibition % (carragenin-induced edema; i.p., 10 mg/kg, 3 h) was 37.1% and the Oedema inhibition % (carragenin-induced edema; i.p., 10 mg/kg, 6 h) was 33.4%. For the same molecule, the Oedema inhibition % (carragenin-induced edema; i.p., 10 mg/kg, 24 h) was 0.0%, the Oedema inhibition % (carragenin-induced edema; i.p., 50 mg/kg, 3 h) was 51.6% and the Oedema inhibition % (carragenin-induced edema; i.p., 50 mg/kg, 6 h) was 53.9%. The Oedema inhibition % (carragenin-induced edema; i.p., 50 mg/kg, 24 h) was 4.2%, the Oedema inhibition % (carragenin-induced edema; i.p., 100 mg/kg, 3 h) was 72.5% and the Oedema inhibition % (carragenin-induced edema; i.p., 100 mg/kg, 6 h) was 70.0%. The Oedema inhibition % (carragenin-induced edema; i.p., 100 mg/kg, 24 h) was 19.1%, the Oedema inhibition % (carragenin-induced edema; os, 10 mg/kg, 3 h) was 32.6% and the Oedema inhibition % (carragenin-induced edema; os, 10 mg/kg, 6 h) was 34.1%. The Oedema inhibition % (carragenin-induced edema; os, 10 mg/kg, 24 h) was 0.0%, the Oedema inhibition % (carragenin-induced edema; os, 50 mg/kg, 3 h) was 49.1% and the Oedema inhibition % (carragenin-induced edema; os, 50 mg/kg, 6 h) was 49.0%. It also gave an Oedema inhibition % (carragenin-induced edema; os, 50 mg/kg, 24 h) of 3.4%, an Oedema inhibition % (carragenin-induced edema; os, 100 mg/kg, 3 h) of 69.7% and an Oedema inhibition % (carragenin-induced edema; os, 100 mg/kg, 6 h) of 69.0%. It also gave an Oedema inhibition % (carragenin-induced edema; os, 100 mg/kg, 24 h) of 22.1%, an inhibition at 1 µg/mL ([2]; 1 γ/ml) of 22% and an inhibition at 5 µg/mL ([2]; 5 γ/ml) of 75%. The inhibition at 10 µg/mL ([2]; 10 γ/ml) was 90%, the Protection % ([3]; i.p., 5 mg/kg) was 15.3% and the Protection % ([3]; i.p., 10 mg/kg) was 47.0%. The Protection % ([3]; i.p., 20 mg/kg) was 75.0%, the Protection % ([3]; os, 5 mg/kg) was 18.0% and the Protection % ([3]; os, 10 mg/kg) was 42.1%. For the same molecule, the Protection % ([3]; os, 20 mg/kg) was 70.3%.
In the case of `Cc1ccc(C(=O)c2ccc(CC(=O)O)n2C)cc1` [Tolmetin Na.2H2 O, reference compound], the Mean number lesions (gastric mucosa; 50 mg/kg) is reported as 2, the Mean number severity (gastric mucosa; 50 mg/kg) is reported as 2 and the Mean number lesions (gastric mucosa; 100 mg/kg) is reported as 2.5. The Mean number severity (gastric mucosa; 100 mg/kg) was 3.5, the Mean number lesions (gastric mucosa; 200 mg/kg) was 3 and the Mean number severity (gastric mucosa; 200 mg/kg) was 4. The Temperature decrease % ([1]; i.p., 50 mg/kg, 1 h) was 16.0%, the Temperature decrease % ([1]; i.p., 50 mg/kg, 2 h) was 19.0% and the Temperature decrease % ([1]; i.p., 50 mg/kg, 3 h) was 31.0%. The Temperature decrease % ([1]; i.p., 75 mg/kg, 1 h) was 20.0%, the Temperature decrease % ([1]; i.p., 75 mg/kg, 2 h) was 29.2% and the Temperature decrease % ([1]; i.p., 75 mg/kg, 3 h) was 34.7%. The Temperature decrease % ([1]; i.p., 100 mg/kg, 1 h) was 28.0%, the Temperature decrease % ([1]; i.p., 100 mg/kg, 2 h) was 39.1% and the Temperature decrease % ([1]; i.p., 100 mg/kg, 3 h) was 31.3%. For the same molecule, the Temperature decrease % ([1]; os, 50 mg/kg, 1 h) was 18.0%, the Temperature decrease % ([1]; os, 50 mg/kg, 6 h) was 20.0% and the Temperature decrease % ([1]; os, 50 mg/kg, 24 h) was 29.5%. For the same molecule, the Temperature decrease % ([1]; os, 75 mg/kg, 1 h) was 20.0%, the Temperature decrease % ([1]; os, 75 mg/kg, 6 h) was 26.0% and the Temperature decrease % ([1]; os, 75 mg/kg, 24 h) was 27.0%. The Temperature decrease % ([1]; os, 100 mg/kg, 1 h) was 32.0%, the Temperature decrease % ([1]; os, 100 mg/kg, 6 h) was 30.9% and the Temperature decrease % ([1]; os, 100 mg/kg, 24 h) was 47.2%. The Oedema inhibition % (carragenin-induced edema; i.p., 10 mg/kg, 3 h) was 33.7%, the Oedema inhibition % (carragenin-induced edema; i.p., 10 mg/kg, 6 h) was 30.1% and the Oedema inhibition % (carragenin-induced edema; i.p., 10 mg/kg, 24 h) was 0.0%. It also gave an Oedema inhibition % (carragenin-induced edema; i.p., 50 mg/kg, 3 h) of 47.1%, an Oedema inhibition % (carragenin-induced edema; i.p., 50 mg/kg, 6 h) of 44.0% and an Oedema inhibition % (carragenin-induced edema; i.p., 50 mg/kg, 24 h) of 0.0%. The Oedema inhibition % (carragenin-induced edema; i.p., 100 mg/kg, 3 h) was 58.3%, the Oedema inhibition % (carragenin-induced edema; i.p., 100 mg/kg, 6 h) was 52.2% and the Oedema inhibition % (carragenin-induced edema; i.p., 100 mg/kg, 24 h) was 5.3%. The Oedema inhibition % (carragenin-induced edema; os, 10 mg/kg, 3 h) was 32.0%, the Oedema inhibition % (carragenin-induced edema; os, 10 mg/kg, 6 h) was 20.0% and the Oedema inhibition % (carragenin-induced edema; os, 10 mg/kg, 24 h) was 0.0%. It also gave an Oedema inhibition % (carragenin-induced edema; os, 50 mg/kg, 3 h) of 46.8%, an Oedema inhibition % (carragenin-induced edema; os, 50 mg/kg, 6 h) of 45.0% and an Oedema inhibition % (carragenin-induced edema; os, 50 mg/kg, 24 h) of 0.0%. For the same molecule, the Oedema inhibition % (carragenin-induced edema; os, 100 mg/kg, 3 h) was 56.1%, the Oedema inhibition % (carragenin-induced edema; os, 100 mg/kg, 6 h) was 54.3% and the Oedema inhibition % (carragenin-induced edema; os, 100 mg/kg, 24 h) was 8.9%. The Protection % ([3]; i.p., 5 mg/kg) was 16.5%, the Protection % ([3]; i.p., 10 mg/kg) was 46.2% and the Protection % ([3]; i.p., 20 mg/kg) was 69.3%. The Protection % ([3]; os, 5 mg/kg) was 15.0%, the Protection % ([3]; os, 10 mg/kg) was 40.6% and the Protection % ([3]; os, 20 mg/kg) was 62.0%.
